pEC50, pIC50: −log10 of the molar value. Where two headings read alike, the source gives them in different places. Where only a bound is given, the exact number is not on record here.

One test deals with SREBP-2 (Homo sapiens (Human), UniProt Q12772). Put plainly: In vitro assay SREBP-2: PathHunter U2OS SREBP-2 Nuclear Translocation Cell Line, U18666A-stimulated. It is filed as cell-based.
The next test has as its target LXRβ (Homo sapiens (Human), UniProt P55055). As to the kind of experiment: In vitro assay LXRβ: PathHunter NHR CHO cells, LXRβ / Steroid Receptor Co-activator Peptide enzyme fragment complementation. It is filed as cell-based. In short, it runs like this:
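Enzyme fragment complementation read-out: CHO cells stably expressing ProLink-tagged full-length human LXRβ plus nuclear enzyme acceptor–SRCP fusion, seeded and held overnight at 37° C. Medium with charcoal-dextran filtered serum; final vehicle 1%. Chemiluminescence measured after signal generation.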

Setting [1] is: PathHunter U2OS SREBP-2 nuclear translocation cells, U18666A 10 μM, overnight (16 hours).
Where [2] appears, read: PathHunter NHR CHO cells, full-length human LXRβ and SRCP, chemiluminescent signal, read-out: LXRβ PPI.

Chain of LXRβ (P55055 whole entry, the tested form may be a part): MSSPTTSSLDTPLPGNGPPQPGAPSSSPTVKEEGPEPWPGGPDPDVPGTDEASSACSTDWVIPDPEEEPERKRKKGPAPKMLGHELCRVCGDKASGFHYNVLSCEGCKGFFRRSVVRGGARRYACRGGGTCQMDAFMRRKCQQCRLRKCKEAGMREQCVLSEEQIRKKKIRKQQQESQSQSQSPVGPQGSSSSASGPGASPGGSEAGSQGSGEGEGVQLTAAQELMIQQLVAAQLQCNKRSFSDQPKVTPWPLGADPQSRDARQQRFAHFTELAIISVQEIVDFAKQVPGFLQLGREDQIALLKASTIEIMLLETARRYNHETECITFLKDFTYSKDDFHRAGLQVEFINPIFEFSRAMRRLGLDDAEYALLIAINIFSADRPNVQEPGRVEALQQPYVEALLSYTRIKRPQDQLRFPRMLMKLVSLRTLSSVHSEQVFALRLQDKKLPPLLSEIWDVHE

The pIC50 is −log10 of the IC50, conventionally taken in molar units. Low readings indicate a high IC50, high ones a low IC50. On SREBP-2 (setting [1]), `CC[C@]1(O)CC[C@@]2(C)C(=CC[C@H]3[C@@H]4CC[C@H]([C@H](C)CCC(=O)N5CCN(C(=O)OC)CC5)[C@@]4(C)CC[C@@H]32)C1` [Example 284, methyl 4-[(4R)-4-[(1R,3aS,3bS,7S,9aR,9bS,11aR)-7-ethyl-7-hydroxy-9a,11a-dimethyl-1H,2H,3H,3aH,3bH,4H,6H,7H,8H,9H,9aH,9bH,10H,11H,11aH-cyclopenta[a]phenanthren-1-yl]pentanoyl]piperazine-1-carboxylate] showed a pIC50 of 5.00 to 6.00. Besides, the pEC50 at LXRβ (setting [2]) is below 5.00.
The like results for `COC(=O)N1CCN(C(=O)CC[C@@H](C)[C@H]2CC[C@H]3[C@@H]4CC=C5C[C@](O)(C(F)(F)F)CC[C@]5(C)[C@H]4CC[C@]23C)CC1` [Example 285, methyl 4-((R)-4-((3S,8S,9S,10R,13R,14S,17R)-3-hydroxy-10,13-dimethyl-3-(trifluoromethyl)-2,3,4,7,8,9,10,11,12,13,14,15,16,17-tetradecahydro-1H-cyclopenta[a]phenanthren-17-yl)pentanoyl)piperazine-1-carboxylate] were, in that order, 5.00 to 6.00 and below 5.00.
`C[C@H](CCC(=O)N1CCC(OC(=O)N(C)C)CC1)[C@H]1CC[C@H]2[C@@H]3CC=C4C[C@@H](O)CC[C@]4(C)[C@H]3CC[C@]12C` [Example 286, 1-((R)-4-((3S,8S,9S,10R,13R,14S,17R)-3-hydroxy-10,13-dimethyl-2,3,4,7,8,9,10,11,12,13,14,15,16,17-tetradecahydro-1H-cyclopenta[a]phenanthren-17-yl)pentanoyl)piperidin-4-yl dimethylcarbamate] showed a pIC50 on SREBP-2 (setting [1]) above 6.60. Besides, on LXRβ (setting [2]), the pEC50 is below 5.00.
On SREBP-2 (setting [1]), `C[C@H](CCC(=O)N1CCC(N(C)C(=O)c2ccncc2)CC1)[C@H]1CC[C@H]2[C@@H]3CC=C4C[C@@H](O)CC[C@]4(C)[C@H]3CC[C@]12C` [Example 288, N-(1-((R)-4-((3S,8S,9S,10R,13R,14S,17R)-3-hydroxy-10,13-dimethyl-2,3,4,7,8,9,10,11,12,13,14,15,16,17-tetradecahydro-1H-cyclopenta[a]phenanthren-17-yl)pentanoyl)piperidin-4-yl)-N-methylisonicotinamide] had a pIC50 of 6.00 to 6.60. At LXRβ (setting [2]), the pEC50 is below 5.00.
Taken in the same sequence, the figures for `C[C@H](CCC(=O)N1CCC(N(C)S(C)(=O)=O)CC1)[C@H]1CC[C@H]2[C@@H]3CC=C4C[C@@H](O)CC[C@]4(C)[C@H]3CC[C@]12C` [Example 289, N-{1-[(4R)-4-[(1R,3aS,3bS,7S,9aR,9bS,11aR)-7-hydroxy-9a,11a-dimethyl-1H,2H,3H,3aH,3bH,4H,6H,7H,8H,9H,9aH,9bH,10H,11H,11aH-cyclopenta[a]phenanthren-1-yl]pentanoyl]piperidin-4-yl}-N-methylmethanesulfonamide] were 6.00 to 6.60 and below 5.00.
The like results for `C[C@H](CCC(=O)N1CCC(S(=O)(=O)N(C)C)CC1)[C@H]1CC[C@H]2[C@@H]3CC=C4C[C@@H](O)CC[C@]4(C)[C@H]3CC[C@]12C` [Example 290, 1-((R)-4-((3S,8S,9S,10R,13R,14S,17R)-3-hydroxy-10,13-dimethyl-2,3,4,7,8,9,10,11,12,13,14,15,16,17-tetradecahydro-1H-cyclopenta[a]phenanthren-17-yl)pentanoyl)-N,N-dimethylpiperidine-4-sulfonamide] were, in that order, above 6.60 and below 5.00.
The like results for `Cc1noc(C(=O)N2CCN(C(=O)CC[C@@H](C)[C@H]3CC[C@H]4[C@@H]5CC=C6C[C@@H](O)CC[C@]6(C)[C@H]5CC[C@]34C)CC2)n1` [Example 292, (R)-4-((3S,8S,9S,10R,13R,14S,17R)-3-hydroxy-10,13-dimethyl-2,3,4,7,8,9,10,11,12,13,14,15,16,17-tetradecahydro-1H-cyclopenta[a]phenanthren-17-yl)-1-(4-(3-methyl-1,2,4-oxadiazole-5-carbonyl)piperazin-1-yl)pentan-1-one] were, in that order, above 6.60 and below 5.00.
Compound `C[C@H](CCC(=O)N1CCN(c2cccnn2)CC1)[C@H]1CC[C@H]2[C@@H]3CC=C4C[C@@H](O)CC[C@]4(C)[C@H]3CC[C@]12C` [Example 303, (4R)-4-[(1R,3aS,3bS,7S,9aR,9bS,11aR)-7-hydroxy-9a,11a-dimethyl-1H,2H,3H,3aH,3bH,4H,6H,7H,8H,9H,9aH,9bH,10H,11H,11aH-cyclopenta[a]phenanthren-1-yl]-1-[4-(pyridazin-3-yl)piperazin-1-yl]pentan-1-one] had a pIC50 on SREBP-2 (setting [1]) above 6.60. Also, at LXRβ (setting [2]), the pEC50 was below 5.00.
The like results for `C[C@H](CCC(=O)N1CCN(c2cnccn2)CC1)[C@H]1CC[C@H]2[C@@H]3CC=C4C[C@@H](O)CC[C@]4(C)[C@H]3CC[C@]12C` [Example 304, (R)-4-((3S,8S,9S,10R,13R,14S,17R)-3-hydroxy-10,13-dimethyl-2,3,4,7,8,9,10,11,12,13,14,15,16,17-tetradecahydro-1H-cyclopenta[a]phenanthren-17-yl)-1-(4-(pyrazin-2-yl)piperazin-1-yl)pentan-1-one] were, in that order, above 6.60 and below 5.00.
On SREBP-2 (setting [1]), `C[C@H](CCC(=O)N1CCN(C(=O)c2cn(C)nn2)CC1)[C@H]1CC[C@H]2[C@@H]3CC=C4C[C@@H](O)CC[C@]4(C)[C@H]3CC[C@]12C` [Example 308, (R)-4-((3S,8S,9S,10R,13R,14S,17R)-3-hydroxy-10,13-dimethyl-2,3,4,7,8,9,10,11,12,13,14,15,16,17-tetradecahydro-1H-cyclopenta[a]phenanthren-17-yl)-1-(4-(1-methyl-1H-1,2,3-triazole-4-carbonyl)piperazin-1-yl)pentan-1-one] gave a pIC50 above 6.60. Moreover, on LXRβ (setting [2]), the pEC50 was below 5.00.
Regarding `C[C@H](CCC(=O)N1CCN(C(=O)c2cnn(C)c2)CC1)[C@H]1CC[C@H]2[C@@H]3CC=C4C[C@@H](O)CC[C@]4(C)[C@H]3CC[C@]12C` [Example 309, (4R)-4-[(1R,3aS,3bS,7S,9aR,9bS,11aR)-7-hydroxy-9a,11a-dimethyl-1H,2H,3H,3aH,3bH,4H,6H,7H,8H,9H,9aH,9bH,10H,11H,11aH-cyclopenta[a]phenanthren-1-yl]-1-[4-(1-methyl-1H-pyrazole-4-carbonyl)piperazin-1-yl]pentan-1-one], the pIC50 against SREBP-2 (setting [1]) was above 6.60. Besides, the pEC50 on LXRβ (setting [2]) was below 5.00.
Taken in the same sequence, the figures for `C[C@H](CCC(=O)N1CCN(C(=O)c2cn[nH]c2)CC1)[C@H]1CC[C@H]2[C@@H]3CC=C4C[C@@H](O)CC[C@]4(C)[C@H]3CC[C@]12C` [Example 310, (R)-1-(4-(1H-pyrazole-4-carbonyl)piperazin-1-yl)-4-((3S,8S,9S,10R,13R,14S,17R)-3-hydroxy-10,13-dimethyl-2,3,4,7,8,9,10,11,12,13,14,15,16,17-tetradecahydro-1H-cyclopenta[a]phenanthren-17-yl)pentan-1-one] were above 6.60 and below 5.00.
The like results for `C[C@H](CCC(=O)N1CCN(C(=O)c2ccns2)CC1)[C@H]1CC[C@H]2[C@@H]3CC=C4C[C@@H](O)CC[C@]4(C)[C@H]3CC[C@]12C` [Example 311, (R)-4-((3S,8S,9S,10R,13R,14S,17R)-3-hydroxy-10,13-dimethyl-2,3,4,7,8,9,10,11,12,13,14,15,16,17-tetradecahydro-1H-cyclopenta[a]phenanthren-17-yl)-1-(4-(isothiazole-5-carbonyl)piperazin-1-yl)pentan-1-one] were, in that order, above 6.60 and below 5.00.
Turning to `C[C@H](CCC(=O)N1CCN(C(=O)c2cccnc2)CC1)[C@H]1CC[C@H]2[C@@H]3CC=C4C[C@@H](O)CC[C@]4(C)[C@H]3CC[C@]12C` [Example 313, (4R)-4-[(1R,3aS,3bS,7S,9aR,9bS,11aR)-7-hydroxy-9a,11a-dimethyl-1H,2H,3H,3aH,3bH,4H,6H,7H,8H,9H,9aH,9bH,10H,11H,11aH-cyclopenta[a]phenanthren-1-yl]-1-[4-(pyridine-3-carbonyl)piperazin-1-yl]pentan-1-one], the pIC50 on SREBP-2 was above 6.60. The compound also gave a pEC50 at LXRβ below 5.00.
Consider `CC(C)N1CCN(C(=O)CC[C@@H](C)[C@H]2CC[C@H]3[C@@H]4CC=C5C[C@@H](O)CC[C@]5(C)[C@H]4CC[C@]23C)CC1` [Example 316, (R)-4-((3S,8S,9S,10R,13R,14S,17R)-3-hydroxy-10,13-dimethyl-2,3,4,7,8,9,10,11,12,13,14,15,16,17-tetradecahydro-1H-cyclopenta[a]phenanthren-17-yl)-1-(4-isopropylpiperazin-1-yl) pentan-1-one], for which, on SREBP-2 (setting [1]), the negative-log IC50 (pIC50) was above 6.60. The pEC50 on LXRβ (setting [2]) is below 5.00.
As for `CC(=O)N1CCCN(C(=O)CC[C@@H](C)[C@H]2CC[C@H]3[C@@H]4CC=C5C[C@@H](O)CC[C@]5(C)[C@H]4CC[C@]23C)CC1` [Example 317, (R)-1-(4-acetyl-1,4-diazepan-1-yl)-4-((3S,8S,9S,10R,13R,14S,17R)-3-hydroxy-10,13-dimethyl-2,3,4,7,8,9,10,11,12,13,14,15,16,17-tetradecahydro-1H-cyclopenta[a]phenanthren-17-yl)pentan-1-one], at SREBP-2 (setting [1]), the pIC50 is above 6.60. In addition, the pEC50 at LXRβ (setting [2]) was below 5.00.
The like results for `CC(=O)N1C[C@@H]2CN(C(=O)CC[C@@H](C)[C@H]3CC[C@H]4[C@@H]5CC=C6C[C@@H](O)CC[C@]6(C)[C@H]5CC[C@]34C)C[C@@H]2C1` [Example 318, (4R)-1-[(3aR,6aS)-5-acetyl-octahydropyrrolo[3,4-c]pyrrol-2-yl]-4-[(1R,3aS,3bS,7S,9aR,9bS,11aR)-7-hydroxy-9a,11a-dimethyl-1H,2H,3H,3aH,3bH,4H,6H,7H,8H,9H,9aH,9bH,10H,11H,11aH-cyclopenta[a]phenanthren-1-yl]pentan-1-one] were, in that order, 6.00 to 6.60 and below 5.00.

The values above are taken from patent publication US20230340011A1 (Asteroid Therapeutics, priority 2022, published 2023).
